{"source": "paper PMC9127750", "about": "“Structure-based design of CDC42 effector interaction inhibitors for the treatment of cancer” (Cell reports, 2022)", "tested_on": "WM3248 melanoma cells, 486 antibodies", "assay": "Reverse phase protein arrays (RPPA)", "format": "cell-based, Human", "from_the_text": "Pellets were snap frozen in liquid nitrogen and shipped to MD Anderson Cancer Center core RPPA facility for RPPA analysis (Table S5). Three biological replicates for each sample were generated.\nNomenclatures on the RPPA heatmaps: name_of_antibody.species_of_antibody.status_of_antibody. V - antibody validated; C - validation of antibody in progress; Q - antibody nonspecific; E – under evaluation; antibodies raised in M - mouse, G - goat, R - rabbit, or T - rat.", "key": {"[1]": {"details": "level 20 normalized to 0, single replicates"}}, "note": "Where “and” joins values, the source holds several entries; their conditions need not be identical. Equal values may be shown once.", "data": [{"smiles": "CN(C)c1cccc(Nc2cc(-c3ccccc3)nc(C3CCNCC3)n2)c1", "note": "[ARN22089, N1,N1-dimethyl-N3-(6-phenyl-2-(piperidin-4-yl)pyrimidin-4-yl)benzene-1,3-diamine]", "values": [{"measurement": "VHL.EPPK1.M.C Norm_20_1 to Norm_20_3", "setting": "[1]", "result": "0.500 and 1.345 and 0.800"}, {"measurement": "VHL.R.C Norm_20_1 to Norm_20_3", "setting": "[1]", "result": "0.916 and 0.962 and 0.841"}, {"measurement": "Vinculin.M.V Norm_20_1 to Norm_20_3", "setting": "[1]", "result": "0.883 and 0.898 and 1.015"}, {"measurement": "WIPI1.R.C Norm_20_1 to Norm_20_3", "setting": "[1]", "result": "1.294 and 1.483 and 1.388"}, {"measurement": "WIPI2.R.C Norm_20_1 to Norm_20_3", "setting": "[1]", "result": "1.222 and 0.891 and 1.265"}, {"measurement": "WTAP.R.V Norm_20_1 to Norm_20_3", "setting": "[1]", "result": "1.313 and 1.590 and 0.930"}, {"measurement": "Wee1.R.C Norm_20_1 to Norm_20_3", "setting": "[1]", "result": "0.789 and 0.790 and 1.159"}, {"measurement": "Wee1_pS642.R.C Norm_20_1 to Norm_20_3", "setting": "[1]", "result": "0.904 and 0.831 and 1.081"}, {"measurement": "XBP.1.G.C Norm_20_1 to Norm_20_3", "setting": "[1]", "result": "0.929 and 1.289"}, {"measurement": "XIAP.R.C Norm_20_1 to Norm_20_3", "setting": "[1]", "result": "0.985 and 0.834 and 1.059"}, {"measurement": "XPA.M.V Norm_20_1 to Norm_20_3", "setting": "[1]", "result": "0.800 and 0.980 and 0.934"}, {"measurement": "XPF.R.C Norm_20_1 to Norm_20_3", "setting": "[1]", "result": "0.837 and 0.882"}, {"measurement": "XRCC1.R.C Norm_20_1 to Norm_20_3", "setting": "[1]", "result": "0.881 and 1.133"}, {"measurement": "YAP.R.C Norm_20_1 to Norm_20_3", "setting": "[1]", "result": "0.917 and 1.135 and 0.817"}, {"measurement": "YAP_pS127.R.V Norm_20_1 to Norm_20_3", "setting": "[1]", "result": "1.228 and 0.736"}, {"measurement": "YB1_pS102.R.V Norm_20_1 to Norm_20_3", "setting": "[1]", "result": 0.867}, {"measurement": "YES1.R.V Norm_20_1 to Norm_20_3", "setting": "[1]", "result": "0.976 and 0.995"}, {"measurement": "YTHDF2.R.V Norm_20_1 to Norm_20_3", "setting": "[1]", "result": "1.165 and 1.218 and 1.246"}, {"measurement": "YTHDF3.R.C Norm_20_1 to Norm_20_3", "setting": "[1]", "result": "1.003 and 1.082 and 1.010"}, {"measurement": "ZAP.70.R.V Norm_20_1 to Norm_20_3", "setting": "[1]", "result": "0.955 and 0.894 and 0.817"}, {"measurement": "ZEB1.R.V Norm_20_1 to Norm_20_3", "setting": "[1]", "result": "0.925 and 1.022 and 0.936"}, {"measurement": "HLA.DQA1.R.V Norm_20 Average", "setting": "level 20 vs 0", "result": 0.977}, {"measurement": "HMHA1.R.V Norm_20 Average", "setting": "level 20 vs 0", "result": 1.016}, {"measurement": "HNRNPK.R.V Norm_20 Average", "setting": "level 20 vs 0", "result": 0.991}, {"measurement": "HSP27.M.C Norm_20 Average", "setting": "level 20 vs 0", "result": 0.811}, {"measurement": "HSP27_pS82.R.V Norm_20 Average", "setting": "level 20 vs 0", "result": 0.961}, {"measurement": "HSP60.R.V Norm_20 Average", "setting": "level 20 vs 0", "result": 0.996}, {"measurement": "HSP70.R.C Norm_20 Average", "setting": "level 20 vs 0", "result": 1.202}, {"measurement": "Hexokinase.I.R.C Norm_20 Average", "setting": "level 20 vs 0", "result": 1.201}, {"measurement": "Hif.1αR.C Norm_20 Average", "setting": "level 20 vs 0", "result": 1.051}, {"measurement": "Histone.H3.R.V Norm_20 Average", "setting": "level 20 vs 0", "result": 5.937}, {"measurement": "Histone.H3_pS10.R.V Norm_20 Average", "setting": "level 20 vs 0", "result": 2.467}, {"measurement": "IDO.R.C Norm_20 Average", "setting": "level 20 vs 0", "result": 0.964}, {"measurement": "IGF1R_pY1135_Y1136.R.V Norm_20 Average", "setting": "level 20 vs 0", "result": 0.962}, {"measurement": "IGFBP3.M.V Norm_20 Average", "setting": "level 20 vs 0", "result": 0.905}, {"measurement": "IL.6.R.C Norm_20 Average", "setting": "level 20 vs 0", "result": 0.971}, {"measurement": "IMP3.R.C Norm_20 Average", "setting": "level 20 vs 0", "result": 0.967}, {"measurement": "INPP4b.R.C Norm_20 Average", "setting": "level 20 vs 0", "result": 0.976}, {"measurement": "IRF.1.R.V Norm_20 Average", "setting": "level 20 vs 0", "result": 0.958}, {"measurement": "IRF.3.R.V Norm_20 Average", "setting": "level 20 vs 0", "result": 0.882}, {"measurement": "IRS1.R.V Norm_20 Average", "setting": "level 20 vs 0", "result": 1.050}, {"measurement": "IRS2.R.C Norm_20 Average", "setting": "level 20 vs 0", "result": 1.223}, {"measurement": "JAB1.M.C Norm_20 Average", "setting": "level 20 vs 0", "result": 0.970}, {"measurement": "JNK2.R.V Norm_20 Average", "setting": "level 20 vs 0", "result": 1.099}, {"measurement": "JNK_pT183_Y185.R.C Norm_20 Average", "setting": "level 20 vs 0", "result": 1.003}, {"measurement": "Jagged1.R.V Norm_20 Average", "setting": "level 20 vs 0", "result": 1.028}, {"measurement": "KAP1.R.V Norm_20 Average", "setting": "level 20 vs 0", "result": 1.259}, {"measurement": "KEAP1.R.V Norm_20 Average", "setting": "level 20 vs 0", "result": 1.000}, {"measurement": "LAD1.R.V Norm_20 Average", "setting": "level 20 vs 0", "result": 0.964}, {"measurement": "LC3A.B.R.C Norm_20 Average", "setting": "level 20 vs 0", "result": 1.242}, {"measurement": "LCN2.R.V Norm_20 Average", "setting": "level 20 vs 0", "result": 1.622}, {"measurement": "LDHA.R.C Norm_20 Average", "setting": "level 20 vs 0", "result": 1.558}, {"measurement": "LRP6_pS1490.R.V Norm_20 Average", "setting": "level 20 vs 0", "result": 1.024}, {"measurement": "Lck.R.V Norm_20 Average", "setting": "level 20 vs 0", "result": 1.304}, {"measurement": "Lyn.R.V Norm_20 Average", "setting": "level 20 vs 0", "result": 1.028}, {"measurement": "MACC1.R.V Norm_20 Average", "setting": "level 20 vs 0", "result": 0.935}, {"measurement": "MAPK_pT202_Y204.R.C Norm_20 Average", "setting": "level 20 vs 0", "result": 0.567}, {"measurement": "MCT4.R.V Norm_20 Average", "setting": "level 20 vs 0", "result": 0.993}, {"measurement": "MDM2_pS166.R.V Norm_20 Average", "setting": "level 20 vs 0", "result": 1.398}, {"measurement": "MEK1.R.V Norm_20 Average", "setting": "level 20 vs 0", "result": 1.549}, {"measurement": "MEK1_pS217_S221.R.V Norm_20 Average", "setting": "level 20 vs 0", "result": 0.977}, {"measurement": "MEK2.R.V Norm_20 Average", "setting": "level 20 vs 0", "result": 1.030}, {"measurement": "MERIT40.R.C Norm_20 Average", "setting": "level 20 vs 0", "result": 0.913}, {"measurement": "MERIT40_pS29.R.V Norm_20 Average", "setting": "level 20 vs 0", "result": 1.026}, {"measurement": "METTL3.R.V Norm_20 Average", "setting": "level 20 vs 0", "result": 1.246}, {"measurement": "MIF.R.C Norm_20 Average", "setting": "level 20 vs 0", "result": 0.892}, {"measurement": "MIG6.R.V Norm_20 Average", "setting": "level 20 vs 0", "result": 0.907}, {"measurement": "MLH1.M.V Norm_20 Average", "setting": "level 20 vs 0", "result": 0.889}, {"measurement": "MLKL.R.V Norm_20 Average", "setting": "level 20 vs 0", "result": 0.854}, {"measurement": "MMP2.R.V Norm_20 Average", "setting": "level 20 vs 0", "result": 0.934}, {"measurement": "MMP14.R.V Norm_20 Average", "setting": "level 20 vs 0", "result": 1.655}, {"measurement": "MR1.M.C Norm_20 Average", "setting": "level 20 vs 0", "result": 0.987}, {"measurement": "MRAP.R.C Norm_20 Average", "setting": "level 20 vs 0", "result": 1.110}, {"measurement": "MSH2.R.C Norm_20 Average", "setting": "level 20 vs 0", "result": 0.939}, {"measurement": "MSH6.R.C Norm_20 Average", "setting": "level 20 vs 0", "result": 1.329}, {"measurement": "MSI2.R.C Norm_20 Average", "setting": "level 20 vs 0", "result": 1.187}, {"measurement": "MTCO1.M.V Norm_20 Average", "setting": "level 20 vs 0", "result": 1.135}, {"measurement": "MTSS1.M.C Norm_20 Average", "setting": "level 20 vs 0", "result": 0.937}, {"measurement": "Mcl.1.R.V Norm_20 Average", "setting": "level 20 vs 0", "result": 0.754}, {"measurement": "MelanA.R.C Norm_20 Average", "setting": "level 20 vs 0", "result": 1.025}, {"measurement": "Melanoma.gp100.R.C Norm_20 Average", "setting": "level 20 vs 0", "result": 1.012}]}]}
